We go through four compounds from patent publication US10745377B2, “Piperidine or piperazine linked imidazole and triazole derivatives and methods of use” (MERCK SHARP & DOHME CORP., priority 2013, dated 2020).

Holding throughout (format): biochemical
For assay [1], the target named is T1, CYP2D6 (Homo sapiens, UniProt P10635).
T1 construct: 0.1 mg/mL protein human liver microsomes (BD Gentest); tissue BD Gentest; host or cells: human liver microsomes
The assay is described as follows: Cocktail assay for CYPs in human liver microsomes: CYP2D6 (dextromethorphan O-demethylation). The following applies: human liver microsomes 0.1 mg/mL, 5 μM dextromethorphan, 10 min at 37° C., 6 concentrations up to 10 μM; read-out: IC50 (nM) CYP2D6. On the technique in general: Liver microsomes are vesicles of endoplasmic reticulum, rich in cytochrome P450 enzymes.
Protocol: (§1) Determination of IC50 in a Cocktail Assay for CYPs 1A2, 2C9, 2C19, 2D6 and 3A4
(§2) This assay was performed in a standard 96-well plate design. […] The incubation substrate mix contains 10 μM phenacetin (1A2), 5 μM diclofenac (2C9), 30 μM mephenytoin (2C19), 5 μM dextromethorphan (2D6) and 2 μM midazolam (3A4), 0.1 mg/mL protein human liver microsomes (BD Gentest), 1 mM NAPDH, 3.3 mM MgCl2 and 100 mM potassium phosphate buffer (pH 7.4). The production of the metabolite of each probe substrate was determined after incubation for 10 min at 37° C. Quantitation of the metabolite peak area ratio against an internal standard (tolbutamide) was determined by LC/MS/MS analysis following acetonitrile treatment of the incubations.
(§3) Samples were analyzed in the MRM mode with a SCIEX API-4000 mass spectrometer (Applied Biosystems, Foster City, Calif.), with a Shimadzu LC-20 AD pump (Shimadzu corporation, Kyoto, JP) and a CTC PAL autosampler (Agilent Technologies, Switzerland). A Phenomenex, Luna, 5 μm, 100 A, 2.00×30 mm HPLC column was used for the separation. The mobile phases were: (A) 0.1% formic acid in water and (B) 0.1% formic acid in acetonitrile. The binary gradient was as follows.
(§4) The mass spectrum parameters were as follows:
(§5) The LC/MS/MS parameters for the analytes were as follows.
(§6) The peak area ratio of the analyte to the internal standard was used to quantify the metabolite. The values of peak area ratios in the presence of test compound were compared to those of maximum or minimum controls and were expressed as % inhibition by interpolating between the maximum and minimum peak area ratios. Incubations with no inhibitor were defined as the maxima.
(§7) The following equation was used to calculate the % inhibition: [1−[(X−Low control)/(High control−Low control)]]*100
(§8) For the IC50 calculation, SigmaPlot was used to plot the mean % inhibition versus the test compound concentrations and for non-linear regression analysis of the data. Depending on the range of data points defining the inhibition curve, the data may have been fit to the 4-parameter logistic equation.

The target in assay [2] is T2, CYP1A2 (Homo sapiens, UniProt P05177).
T2 construct: 0.1 mg/mL protein human liver microsomes (BD Gentest); tissue BD Gentest; host or cells: human liver microsomes
T2 sequence (P05177 1-516): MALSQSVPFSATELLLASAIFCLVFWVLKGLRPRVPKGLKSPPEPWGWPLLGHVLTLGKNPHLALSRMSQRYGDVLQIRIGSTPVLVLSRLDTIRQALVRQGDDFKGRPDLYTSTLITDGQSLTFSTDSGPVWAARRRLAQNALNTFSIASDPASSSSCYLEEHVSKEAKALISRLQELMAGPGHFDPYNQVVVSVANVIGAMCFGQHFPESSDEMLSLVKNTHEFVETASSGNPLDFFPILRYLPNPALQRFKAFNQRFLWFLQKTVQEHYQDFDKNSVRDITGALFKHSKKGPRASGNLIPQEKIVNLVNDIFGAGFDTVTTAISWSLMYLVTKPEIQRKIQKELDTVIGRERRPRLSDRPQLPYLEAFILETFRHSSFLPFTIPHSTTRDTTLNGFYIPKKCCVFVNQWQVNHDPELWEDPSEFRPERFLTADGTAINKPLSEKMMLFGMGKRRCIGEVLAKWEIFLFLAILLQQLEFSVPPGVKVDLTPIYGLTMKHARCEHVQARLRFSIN
Nature of the assay: Cocktail assay for CYPs in human liver microsomes: CYP1A2 (phenacetin O-deethylation). The settings on record: human liver microsomes 0.1 mg/mL, 10 μM phenacetin, 10 min at 37° C., 6 concentrations up to 10 μM; read-out: IC50 (nM) CYP1A2.

Assay [3] concerns the target T3, CYP3A4 (Homo sapiens, UniProt P08684).
T3 construct: 0.1 mg/mL protein human liver microsomes (BD Gentest); tissue BD Gentest; host or cells: human liver microsomes
The assay is described as follows: Cocktail assay for CYPs in human liver microsomes: CYP3A4 (midazolam 1′-hydroxylation). The following applies: human liver microsomes 0.1 mg/mL, 2 μM midazolam, 10 min at 37° C., 6 concentrations up to 10 μM; read-out: IC50 (nM) CYP3A4.

In assay [4] the target is T4, CYP2C19 (Homo sapiens, UniProt P33261).
T4 construct: 0.1 mg/mL protein human liver microsomes (BD Gentest); tissue BD Gentest; host or cells: human liver microsomes
The assay is described as follows: Cocktail assay for CYPs in human liver microsomes: CYP2C19 (mephenytoin 4′-hydroxylation). The following applies: human liver microsomes 0.1 mg/mL, 30 μM mephenytoin, 10 min at 37° C., 6 concentrations up to 10 μM; read-out: IC50 (nM) CYP2C19.
Protocol: as §1, §2, §3, §4, §5, §6, §7, §8

Assay [5] addresses T5, CYP2C9 (Homo sapiens, UniProt P11712).
T5 construct: 0.1 mg/mL protein human liver microsomes (BD Gentest); tissue BD Gentest; host or cells: human liver microsomes
The assay is described as follows: Cocktail assay for CYPs in human liver microsomes: CYP2C9 (diclofenac 4′-hydroxylation). The settings on record: human liver microsomes 0.1 mg/mL, 5 μM diclofenac, 10 min at 37° C., 6 concentrations up to 10 μM; read-out: IC50 (nM) CYP2C9.

T4 sequence (P33261 whole entry): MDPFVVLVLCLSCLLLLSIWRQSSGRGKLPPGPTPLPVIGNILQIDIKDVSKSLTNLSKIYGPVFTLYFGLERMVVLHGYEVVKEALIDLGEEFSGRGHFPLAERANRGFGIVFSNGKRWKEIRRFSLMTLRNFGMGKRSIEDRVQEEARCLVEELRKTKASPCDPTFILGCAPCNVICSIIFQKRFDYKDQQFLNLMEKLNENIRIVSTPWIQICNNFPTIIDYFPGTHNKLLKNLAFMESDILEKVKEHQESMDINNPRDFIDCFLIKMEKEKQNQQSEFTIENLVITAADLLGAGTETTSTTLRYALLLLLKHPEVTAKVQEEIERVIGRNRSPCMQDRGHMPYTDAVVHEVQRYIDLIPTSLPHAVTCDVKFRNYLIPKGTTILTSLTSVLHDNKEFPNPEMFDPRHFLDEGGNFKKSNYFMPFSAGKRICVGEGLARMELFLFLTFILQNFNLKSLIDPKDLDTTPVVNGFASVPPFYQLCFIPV
T3 sequence (P08684 whole entry): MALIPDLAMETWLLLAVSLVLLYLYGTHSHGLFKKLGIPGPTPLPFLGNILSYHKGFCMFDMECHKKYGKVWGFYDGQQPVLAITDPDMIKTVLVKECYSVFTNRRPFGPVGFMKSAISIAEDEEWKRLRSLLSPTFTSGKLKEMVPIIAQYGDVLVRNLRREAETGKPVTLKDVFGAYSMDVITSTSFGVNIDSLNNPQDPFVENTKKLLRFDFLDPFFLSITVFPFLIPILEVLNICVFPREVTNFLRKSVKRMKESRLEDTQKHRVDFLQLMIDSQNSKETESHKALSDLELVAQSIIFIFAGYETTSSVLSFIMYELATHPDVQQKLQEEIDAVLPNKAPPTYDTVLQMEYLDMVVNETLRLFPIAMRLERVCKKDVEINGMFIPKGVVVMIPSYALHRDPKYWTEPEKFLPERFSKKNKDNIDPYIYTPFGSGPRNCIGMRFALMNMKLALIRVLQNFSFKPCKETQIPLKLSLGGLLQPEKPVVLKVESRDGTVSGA
T5 sequence (P11712 whole entry): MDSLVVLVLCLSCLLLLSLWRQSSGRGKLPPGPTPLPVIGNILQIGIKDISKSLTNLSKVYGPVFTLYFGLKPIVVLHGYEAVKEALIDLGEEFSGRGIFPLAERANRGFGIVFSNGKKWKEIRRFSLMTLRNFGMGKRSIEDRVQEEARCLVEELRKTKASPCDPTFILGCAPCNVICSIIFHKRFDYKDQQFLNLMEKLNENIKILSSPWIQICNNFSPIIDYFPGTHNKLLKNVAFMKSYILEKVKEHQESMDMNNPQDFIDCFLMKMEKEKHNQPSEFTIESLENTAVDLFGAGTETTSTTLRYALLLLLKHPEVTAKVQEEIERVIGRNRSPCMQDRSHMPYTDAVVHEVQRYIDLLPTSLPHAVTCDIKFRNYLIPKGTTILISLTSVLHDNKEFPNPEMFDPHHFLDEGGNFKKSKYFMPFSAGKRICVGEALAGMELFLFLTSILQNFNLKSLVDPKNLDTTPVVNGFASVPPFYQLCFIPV
T1 sequence (P10635 whole entry): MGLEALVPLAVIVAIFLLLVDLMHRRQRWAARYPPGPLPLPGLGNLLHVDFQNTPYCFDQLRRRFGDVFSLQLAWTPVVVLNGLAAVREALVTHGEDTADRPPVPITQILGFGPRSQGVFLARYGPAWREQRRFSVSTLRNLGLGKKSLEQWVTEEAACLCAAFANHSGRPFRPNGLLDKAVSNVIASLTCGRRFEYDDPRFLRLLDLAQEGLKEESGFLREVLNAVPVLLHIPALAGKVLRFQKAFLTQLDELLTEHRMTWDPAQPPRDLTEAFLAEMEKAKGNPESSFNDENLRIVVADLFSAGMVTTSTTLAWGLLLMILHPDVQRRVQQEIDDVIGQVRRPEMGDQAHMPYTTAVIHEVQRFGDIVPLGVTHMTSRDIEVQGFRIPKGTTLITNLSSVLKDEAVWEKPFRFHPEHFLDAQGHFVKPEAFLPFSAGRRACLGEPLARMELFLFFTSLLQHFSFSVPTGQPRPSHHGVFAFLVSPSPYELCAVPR

With `C[C@H](c1ccc(F)cc1)n1cncc1CN1CCN(Cc2cnc(N3CCN(C)CC3)s2)C(=O)C1` [Compound 69, (R)-4-((1-(1-(4-fluorophenyl)ethyl)-1H-imidazol-5-yl)methyl)-1-((2-(4-methylpiperazin-1-yl)thiazol-5-yl)methyl) piperazin-2-one], the IC50 was above 10000 nM in assay [1]; above 10000 nM in assay [2]; 56 nM in assay [3]; above 10000 nM in assay [4]; above 10000 nM in assay [5].
Turning to `CCOC(=O)CN1CCN(Cc2cncn2C(C)c2ccccc2-c2ccc(F)cc2)CC1` (centres unmarked) [Compound 70, ethyl 2-(4-((1-(1-(4′-fluoro-[1,1′-biphenyl]-2-yl)ethyl)-1H-imidazol-5-yl)methyl)piperazin-1-yl)acetate], the IC50 in assay [1] is 7680 nM; in assay [2], above 10000 nM; in assay [3], 15 nM; in assay [4], 5950 nM; in assay [5], above 10000 nM.
As to `CC(c1ccccc1-c1ccc(F)cc1)n1cncc1CN1CCN(CCO)CC1` (centres unmarked) [Compound 71, 2-(4-((1-(1-(4′-fluoro-[1,1′-biphenyl]-2-yl)ethyl)-1H-imidazol-5-yl)methyl)piperazin-1-yl) ethanol], the IC50 in assay [1] was above 10000 nM; in assay [2] it was above 10000 nM; in assay [3] it was 37 nM; in assay [4] it was above 10000 nM; in assay [5], above 10000 nM.
`COCCN1CCN(Cc2cncn2C(C)c2ccccc2-c2ccc(F)cc2)CC1` (centres unmarked) [Compound 72, 1-((1-(1-(4′-fluoro-[1,1′-biphenyl]-2-yl)ethyl)-1H-imidazol-5-yl)methyl)-4-(2-methoxyethyl) piperazine]: the IC50 in assay [1] is 1170 nM; in assay [2], above 10000 nM; in assay [3], 14 nM; in assay [4] it was above 10000 nM; in assay [5], above 10000 nM.

The IC50 is the midpoint of a concentration-inhibition curve.
